The results in this text go back to patent publication US5403930A, “Substituted salicylic acids” (Pharmacia AB, priority 1991, dated 1995).

The inhibition is the drop in the measured response relative to a control, in per cent.

Test [1] deals with Human Granulocytes. The test can be described thus: FMLP-induced superoxide production of human granulocytes, 10 μM test compound. The test is classed as cell-based. The note with it: 10 nM FMLP, 400 000 granulocytes. Here is the method:
Effects of Test Compounds on Superoxide Production of Human Granulocytes
(§1) Granulocytes were isolated from the heparinized blood from healthy volunteers. The superoxide assay was essentially that of J. M. McCord and I Fridovich (J. Biol. Chem. 244:6049-6055 (1969)) as modified by G Carlin et al. (Pharmacol. Toxicol 65:121-127 (1989)). The reaction mixture contained (final concentrations) 125 μM cytochrome C in Dulbeccos phosphate buffer with Mg and Ca, 10 μM test compound and 400 000 granulocytes treated with 5 μg/ml of cytochalasin B immediately before the experiment. This reaction mixture was preincubated at 37° C. for 10 minutes, whereafter 10 nM N-formyl-L-methionyl-L-leucyl-L-phenylalanine was added to start the reaction, making the final volume 1 ml. After 10 minutes the tubes were centrifuged and the absorbance of the supernatant at 540 and 550 nm was measured. The superoxide production was expressed as the difference in absorbance at these wavelengths.

Another test has as its system human lymphocytes. The test can be described thus: Concanavalin A-induced proliferation of human lymphocytes ([3H]-thymidine). Conditions: Lymphocyte, 72 h, 250 μM test compound, 2.5 μg/ml Concanavalin A, 3 days, 2 experiments. The test is classed as cell-based. Here is the method:
(§2) Effect of Compounds on Human Lymphocyte Proliferation Peripheral blood mononuclear cells were isolated from heparinized blood from healthy volunteers by density gradient centrifugation as described by Bain and Pshyk, Transplantation Proc, 4:163-164 (1972). Cell proliferation induced by Concanavalin A was measured in a standard assay such as described in Soderstrom et at., Scand J Immunol, 32:503-516 (1990) using 5% fetal bovine serum in the culture medium. The reaction mixture (final concentrations) consisted of 200 000 cells stimulated with 2.5 μg/ml Concanavalin A and test compounds in a total volume of 0.2 ml. The test compounds were added at the start of the assay, which was run for a total of three days with addition ofradioactive [3H]-thymidine during the last 18 h. Cell bound radioactivity was measured in a liquid scintillation counter.

In test [2] the test system is human lymphocytes and granulocytes. As to the kind of experiment: Overall activity judged from the results of Examples 40 to 42. Here is the method:
as §2, with “Peripheral” for “Effect of Compounds on Human Lymphocyte Proliferation Peripheral”
as §1
as §1, with “et at.” for “et al.”, “Ca, 100” for “Ca, 10”, “and 600” for “and 400”, “whereafter 100” for “whereafter 10”

Test [3] concerns Human Granulocytes. The test can be described thus: FMLP-induced superoxide production of human granulocytes, 100 μM test compound. Conditions: 100 nM FMLP, 600 000 granulocytes. The test is classed as cell-based. Here is the method: Effects of Test Compounds on Superoxide Production of Human Granulocytes at 100 um Concentration
as §1, with “et at.” for “et al.”, “Ca, 100” for “Ca, 10”, “and 600” for “and 400”, “whereafter 100” for “whereafter 10”

Consider `O=C(O)c1cc(C#Cc2ccc(S(=O)(=O)Nc3ccccn3)cc2)ccc1O` [Example 1, 2-Hydroxy-5-[[4-[(2-pyridinylamino)sulfonyl]phenyl]ethynyl]benzoic acid], for which the inhibition at 10 µM with Human Granulocytes [1] worked out at 71%. The inhibition at 250 µM with human lymphocytes was determined as 95.6%.

For the compound `O=C(O)c1cc(C=Cc2ccc(S(=O)(=O)Nc3ccccn3)cc2)ccc1O` [Example 3, 2-Hydroxy-5-[2-[4-[(2-pyridinylamino)sulfonyl]phenyl]ethenyl]benzoic acid], the inhibition at 10 µM in the test with Human Granulocytes [1] came to 55.7%. Besides, the inhibition at 250 µM in the test on human lymphocytes turned out to be 73.6%.

In the test with Human Granulocytes [1], `Cc1cccnc1NS(=O)(=O)c1ccc(C=Cc2ccc(O)c(C(=O)O)c2)cc1` [Example 4, 2-Hydroxy-5-[2-[4-[(3-methyl-2-pyridinylamino)sulfonyl]phenyl]ethenyl]benzoic acid] came in with an inhibition at 10 µM of 76.9%. The inhibition at 250 µM in the test with human lymphocytes came to 92.3%.

Turning to `CC(C)COC(=O)c1cc(C=Cc2ccc(S(=O)(=O)Nc3ccccn3)cc2)ccc1O` [Example 5, Isobutyl 2-hydroxy-5-[2-[4-[(2-pyridinylamino)sulfonyl]phenyl]ethenyl]benzoate], the inhibition at 10 µM in the test with Human Granulocytes [1] was 25.8%.

Regarding `Cc1ccc(NS(=O)(=O)c2ccc(C=Cc3ccc(O)c(C(=O)O)c3)cc2)nc1` [Example 15, 2-Hydroxy-5-[2-[4-[(5-methyl-2-pyridinylamino)sulfonyl]phenyl]ethenyl]benzoic acid], in the test on human lymphocytes, the inhibition at 250 µM was found to be 93.9%.

With `O=C(O)c1cc(C=Cc2ccc(S(=O)(=O)Nc3ncccc3OCc3ccccc3)cc2)ccc1O` [Example 16, 2-Hydroxy-5-[2-[4-[[3-(phenylmethoxy)-2-pyridinylamino]sulfonyl]phenyl]ethenyl]benzoic acid], in the test with Human Granulocytes [1], testing at 10 µM gave an inhibition of 94.6%. Also, in test [2], the Overall activity ranking entry is “most active”. In the test on human lymphocytes, the inhibition at 250 µM turned out to be 95.4%.

For `O=C(O)c1cc(C=Cc2ccc(S(=O)(=O)Nc3ccc(Cl)cn3)cc2)ccc1O` [Example 17, 5-[2-[4-[(5-Chloro-2-pyridinylamino)sulfonyl]phenyl]ethenyl]-2hydroxybenzoic acid], the inhibition at 10 µM in the test on Human Granulocytes [1] turned out to be 71.9%. Further, in test [2], the Overall activity ranking entry was “most active”. The inhibition at 250 µM with human lymphocytes came out at 99.5%.

In the test with Human Granulocytes [1], `Cc1cc(NS(=O)(=O)c2ccc(C=Cc3ccc(O)c(C(=O)O)c3)cc2)no1` [Example 18, 2-Hydroxy-5-[2-[4-[(5-methyl-3-isoxazolyl)aminosulfonyl]phenyl]ethenyl]benzoic acid] registered an inhibition at 10 µM of 44.2%. Also, the inhibition at 250 µM in the test with human lymphocytes was determined as 43.8%.

On to `Cc1ccnc(NS(=O)(=O)c2ccc(C=Cc3ccc(O)c(C(=O)O)c3)cc2)n1` [Example 19, 2-Hydroxy-5-[2-[4-[(4-methyl-2-pyrimidyl)amino-sulfonyl]phenyl]ethenyl]benzoic acid ethanol solvate (2:1)], for which, in the test on Human Granulocytes [1], the inhibition at 10 µM is 65.9%. In addition, the inhibition at 250 µM in the test on human lymphocytes was found to be 10.3%.

With `O=C(O)c1cc(C=Cc2ccc(S(=O)(=O)Nc3cnccn3)cc2)ccc1O` [Example 20, 2-Hydroxy-5-[2-[4-[(2-pyrazinyl)aminosulfonyl]phenyl]ethenyl]benzoic acid], the inhibition at 10 µM in the test with Human Granulocytes [1] amounted to 35.1%. Moreover, the inhibition at 250 µM in the test on human lymphocytes was determined as 34.8%.

As to `O=C(O)c1cc(C=Cc2ccc(S(=O)(=O)Nc3nc4ccc(F)cc4s3)cc2)ccc1O` [Example 21, 2-Hydroxy-5-[2-[4-[[6-fluoro-(2-benzo[d]thiazolyl)]aminosulfonyl]phenyl]ethenyl]benzoic acid], the inhibition at 10 µM in the test with Human Granulocytes [1] is 93%. In addition, the Overall activity ranking entry in test [2] was “most active”. In addition, the inhibition at 250 µM in the test on human lymphocytes stood at 99.8%.

The compound `CN(c1ccccn1)S(=O)(=O)c1ccc(C=Cc2ccc(O)c(C(=O)O)c2)cc1` [Example 22, 2-Hydroxy-5-[2-[4-[N-methyl-(2-pyridinyl)aminosulfonyl]phenyl]ethenyl]benzoic acid] returned an inhibition at 10 µM in the test on Human Granulocytes [1] of 85.5%. The Overall activity ranking entry in test [2] is “most active”. The inhibition at 250 µM with human lymphocytes was 99.8%.

Regarding `Cc1ccnc(NS(=O)(=O)c2ccc(C=Cc3ccc(O)c(C(=O)O)c3)cc2)c1` [Example 25, 2-Hydroxy-5-[2-[4-[(4-methyl-2-pyridinylamino)sulfonyl]phenyl]-ethenyl]benzoic acid ethanol solvate (2:1)], the inhibition at 10 µM in the test with Human Granulocytes [1] stood at 45.5%.

Compound `O=C(O)c1cc(CCc2ccc(S(=O)(=O)Nc3ccccn3)cc2)ccc1O` [Example 26, 2-Hydroxy-5-[2-[4-[(2-pyridinylamino)sulfonyl]phenyl]ethyl]benzoic acid] yielded an inhibition at 10 µM in the test with Human Granulocytes [1] of 26.8%. In the test on human lymphocytes, the inhibition at 250 µM is 16%.

Regarding `Cc1cccnc1NS(=O)(=O)c1ccc(CC(=O)c2ccc(O)c(C(=O)O)c2)cc1` [Example 27, 2-Hydroxy-5-[[4-[(3-methyl-2-pyridinylamino)sulfonyl]phenyl]acetyl]benzoic acid], in the test with Human Granulocytes [1], the inhibition at 10 µM is 32.7%. Besides, the inhibition at 250 µM with human lymphocytes came out at 37.3%.

On to `O=C(Cc1ccc(S(=O)(=O)Nc2ccccn2)cc1)c1ccc(O)c(C(=O)O)c1` [Example 28], for which the inhibition at 10 µM in the test with Human Granulocytes [1] is 17.9%. Further, the inhibition at 250 µM with human lymphocytes worked out at 15%.

`O=C(C=Cc1ccc(S(=O)(=O)Nc2ccccn2)cc1)c1ccc(O)c(C(=O)O)c1` [Example 29, 2-Hydroxy-5-[1-oxo-3-[4-[(2-pyridinylamino)sulfonyl]phenyl]-2-propenyl]benzoic acid]: the inhibition at 10 µM with Human Granulocytes [1] is 33.4%. Besides, in the test on human lymphocytes, the inhibition at 250 µM stood at 66%.

For `O=C(O)c1cc(C#Cc2ccc(S(=O)(=O)Nc3ncccc3OCc3ccccc3)cc2)ccc1O` [Example 31, 2-Hydroxy-5-[[4-[[3-(phenylmethoxy)-2-pyridinylamino]sulfonyl]phenyl]ethynyl]benzoic acid], in the test on human lymphocytes, the inhibition at 250 µM is 100%.

On to `O=C(O)c1cc(C#Cc2ccc(S(=O)(=O)Nc3ccc(Cl)cn3)cc2)ccc1O` [Example 32, 5-[[4-[(5-Chloro-2-pyridinylamino)sulfonyl]phenyl]ethynyl]-2hydroxybenzoic acid], for which the inhibition at 250 µM in the test on human lymphocytes came to 100%.

With `Cc1ccnc(NS(=O)(=O)c2ccc(C#Cc3ccc(O)c(C(=O)O)c3)cc2)c1` [Example 33, 2-Hydroxy-5-[[4-[(4-methyl-2-pyridinyl)amino-sulfonyl]phenyl]ethynyl]benzoic acid], the inhibition at 100 µM in the test on Human Granulocytes [3] turned out to be 92.1%. The Overall activity ranking entry in test [2] was “most active”.

On to `O=C(O)c1cc(C#Cc2ccc(S(=O)(=O)Nc3nc4ccc(F)cc4s3)cc2)ccc1O` [Example 34], for which the inhibition at 250 µM in the test on human lymphocytes came to 98%.

With `CN(c1ccccn1)S(=O)(=O)c1ccc(C#Cc2ccc(O)c(C(=O)O)c2)cc1` [Example 35, 2-Hydroxy-5-[[4-[N-methyl-(2-pyridinyl)aminosulfonyl]phenyl]ethynyl]benzoicacid], the inhibition at 250 µM in the test with human lymphocytes was 99%.

Regarding `Cc1cccnc1NS(=O)(=O)c1ccc(C#Cc2cc(C(=O)O)c(O)cc2F)cc1` [Example 37, 4-Fluoro-2-hydroxy-5-[[4-[(3-methyl-2-pyridinylamino)sulfonyl]phenyl]ethynyl]benzoic acid], the inhibition at 100 µM with Human Granulocytes [3] was 97.5%. The Overall activity ranking entry in test [2] was “most active”. The inhibition at 250 µM in the test on human lymphocytes was 100%.

Compound `Cc1cccnc1NS(=O)(=O)c1ccc(C=Cc2cc(C(=O)O)c(O)cc2F)cc1` [Example 38, 4-Fluoro-2-hydroxy-5-[2-[4-[(3-methyl-2-pyridinylamino)sulfonyl]phenyl]ethenyl]benzoic acid] showed an inhibition at 100 µM in the test with Human Granulocytes [3] of 98.7%. In addition, in test [2], the Overall activity ranking result is listed as “most active”. The inhibition at 250 µM with human lymphocytes came to 100%.

In the case of `Cc1cccnc1NS(=O)(=O)c1cccc(C#Cc2ccc(O)c(C(=O)O)c2)c1` [Example 39, 2-Hydroxy-5-[[3-[(3-methyl-2-pyridinylamino)sulfonyl]phenyl]ethynyl]benzoicacid], the inhibition at 100 µM in the test on Human Granulocytes [3] is 93.5%. Besides, the Overall activity ranking result in test [2] is listed as “most active”. In addition, in the test with human lymphocytes, the inhibition at 250 µM is 100%.
